The subject of this data set is CCRIS mutagenicity, Ames/micronucleus/aberration tests. Kind of data set: CCRIS mutagenicity studies.
Setting [1] is: Test System: AMES SALMONELLA TYPHIMURIUM, Strain/Indicator: TA100, Metabolic Activation: NONE, Method: STANDARD PLATE.

Active and inactive are the calls of the source. No rule for the calls is given here.

As to `CCCO`, the mutagenic call (Test System: AMES SALMONELLA TYPHIMURIUM, Strain/Indicator: TA98, Metabolic Activation: HAMSTER, LIVER, S-9, AROCLOR 1254, Method: STANDARD PLATE) is “inactive; negative”; the mutagenic call (Test System: AMES SALMONELLA TYPHIMURIUM, Strain/Indicator: TA98, Metabolic Activation: NONE, Method: STANDARD PLATE) is “inactive; negative”; the mutagenic call (Test System: AMES SALMONELLA TYPHIMURIUM, Strain/Indicator: TA98, Metabolic Activation: RAT, LIVER, S-9, AROCLOR 1254, Method: STANDARD PLATE) was “inactive; negative”; the mutagenic call (Test System: AMES SALMONELLA TYPHIMURIUM, Strain/Indicator: TA100, Metabolic Activation: HAMSTER, LIVER, S-9, AROCLOR 1254, Method: STANDARD PLATE) was “inactive; negative”; the mutagenic call under setting [1] is “inactive; negative”; the mutagenic call (Test System: AMES SALMONELLA TYPHIMURIUM, Strain/Indicator: TA100, Metabolic Activation: RAT, LIVER, S-9, AROCLOR 1254, Method: STANDARD PLATE) was “inactive; negative”. The mutagenic call by setting is: (Test System: AMES SALMONELLA TYPHIMURIUM, Strain/Indicator: TA1535, Metabolic Activation: HAMSTER, LIVER, S-9, AROCLOR 1254, Method: STANDARD PLATE) “inactive; negative”; (Test System: AMES SALMONELLA TYPHIMURIUM, Strain/Indicator: TA1535, Metabolic Activation: NONE, Method: STANDARD PLATE) “inactive; negative”; (Test System: AMES SALMONELLA TYPHIMURIUM, Strain/Indicator: TA1535, Metabolic Activation: RAT, LIVER, S-9, AROCLOR 1254, Method: STANDARD PLATE) “inactive; negative”; (Test System: AMES SALMONELLA TYPHIMURIUM, Strain/Indicator: TA1537, Metabolic Activation: HAMSTER, LIVER, S-9, AROCLOR 1254, Method: STANDARD PLATE) “inactive; negative”; (Test System: AMES SALMONELLA TYPHIMURIUM, Strain/Indicator: TA1537, Metabolic Activation: NONE, Method: STANDARD PLATE) “inactive; negative”; (Test System: AMES SALMONELLA TYPHIMURIUM, Strain/Indicator: TA1537, Metabolic Activation: RAT, LIVER, S-9, AROCLOR 1254, Method: STANDARD PLATE) “inactive; negative”. The mutagenic call runs as follows: (Test System: AMES SALMONELLA TYPHIMURIUM, Strain/Indicator: TA1538, Metabolic Activation: HAMSTER, LIVER, S-9, AROCLOR 1254, Method: STANDARD PLATE) “inactive; negative”; (Test System: AMES SALMONELLA TYPHIMURIUM, Strain/Indicator: TA1538, Metabolic Activation: NONE, Method: STANDARD PLATE) “inactive; negative”; (Test System: AMES SALMONELLA TYPHIMURIUM, Strain/Indicator: TA1538, Metabolic Activation: RAT, LIVER, S-9, AROCLOR 1254, Method: STANDARD PLATE) “inactive; negative”; (Test System: MOUSE LYMPHOMA, Strain/Indicator: L5178Y (TK+/TK-), Metabolic Activation: NONE, Method: SUSPENSION/PLATE) “inactive; negative”; (Test System: MOUSE LYMPHOMA, Strain/Indicator: L5178Y (TK+/TK-), Metabolic Activation: RAT, LIVER, S-9, AROCLOR 1254, Method: SUSPENSION/PLATE) “inactive; negative”.

`O=Nc1nc[nH]c1-c1ccccc1`: under setting [1], the mutagenic call is “active; positive”.

Consider `CC1(C)C(=O)N(Cl)C(=O)N1Cl`, for which the mutagenic call was “inactive; negative” (End Point: IN VITRO CHROMOSOMAL ABERRATIONS, Test System: CHINESE HAMSTER OVARY CELLS, Metabolic Activation: NONE); “inactive; negative” (End Point: IN VITRO CHROMOSOMAL ABERRATIONS, Test System: CHINESE HAMSTER OVARY CELLS, Metabolic Activation: RAT, LIVER, S-9, AROCLOR 1254); “inactive; negative” (Test System: AMES SALMONELLA TYPHIMURIUM, Strain/Indicator: TA98, Metabolic Activation: HAMSTER, LIVER, S-9, AROCLOR 1254, Method: PREINCUBATION); “inactive; negative” (Test System: AMES SALMONELLA TYPHIMURIUM, Strain/Indicator: TA98, Metabolic Activation: NONE, Method: PREINCUBATION); “inactive; negative” (Test System: AMES SALMONELLA TYPHIMURIUM, Strain/Indicator: TA98, Metabolic Activation: RAT, LIVER, S-9, AROCLOR 1254, Method: PREINCUBATION); “inactive; negative” (Test System: AMES SALMONELLA TYPHIMURIUM, Strain/Indicator: TA100, Metabolic Activation: HAMSTER, LIVER, S-9, AROCLOR 1254, Method: PREINCUBATION). Moreover, the mutagenic call reads like this: (Test System: AMES SALMONELLA TYPHIMURIUM, Strain/Indicator: TA100, Metabolic Activation: NONE, Method: PREINCUBATION) “inactive; negative”; (Test System: AMES SALMONELLA TYPHIMURIUM, Strain/Indicator: TA100, Metabolic Activation: RAT, LIVER, S-9, AROCLOR 1254, Method: PREINCUBATION) “inactive; negative”; (Test System: AMES SALMONELLA TYPHIMURIUM, Strain/Indicator: TA1535, Metabolic Activation: HAMSTER, LIVER, S-9, AROCLOR 1254, Method: PREINCUBATION) “inactive; negative”; (Test System: AMES SALMONELLA TYPHIMURIUM, Strain/Indicator: TA1535, Metabolic Activation: NONE, Method: PREINCUBATION) “inactive; negative”; (Test System: AMES SALMONELLA TYPHIMURIUM, Strain/Indicator: TA1535, Metabolic Activation: RAT, LIVER, S-9, AROCLOR 1254, Method: PREINCUBATION) “inactive; negative”; (Test System: AMES SALMONELLA TYPHIMURIUM, Strain/Indicator: TA1537, Metabolic Activation: HAMSTER, LIVER, S-9, AROCLOR 1254, Method: PREINCUBATION) “inactive; negative”. The mutagenic call was “inactive; negative” (Test System: AMES SALMONELLA TYPHIMURIUM, Strain/Indicator: TA1537, Metabolic Activation: NONE, Method: PREINCUBATION) and “inactive; negative” (Test System: AMES SALMONELLA TYPHIMURIUM, Strain/Indicator: TA1537, Metabolic Activation: RAT, LIVER, S-9, AROCLOR 1254, Method: PREINCUBATION).

For `Cc1cccc2cc3c(ccc4ccccc43)cc12`, the mutagenic call reads like this: (Test System: AMES SALMONELLA TYPHIMURIUM, Strain/Indicator: TA100, Metabolic Activation: RAT, INTACT HEPATOCYTES, AROCLOR 1254, Method: PREINCUBATION) “active; positive”; (Test System: AMES SALMONELLA TYPHIMURIUM, Strain/Indicator: TA100, Metabolic Activation: RAT, NADPH-FORTIFIED HOMOGENIZED HEPATOCYTES, AROCLOR 1254, Method: PREINCUBATION) “active; positive”; (Test System: AMES SALMONELLA TYPHIMURIUM, Strain/Indicator: TA100, Metabolic Activation: RAT, SONICATED HEPATOCYTES, AROCLOR 1254, Method: PREINCUBATION) “active; positive”.

The values are drawn from PubChem BioAssay AID1259407 (Chemical Carcinogenesis Research Information System (CCRIS), 2018).
